Key:
Assay in all cases: concentration in plasma after dosing
[1] = test system: Rat; settings: 4 h; dosed: Oxymetholone; 30 mg/kg; oral; Male; F344/N
[2] = test system: Rat; settings: 2 h; dosed: Oxymetholone; 120 mg/kg; oral; Female; F344/N
[3] = test system: Rat; settings: 40 min; dosed: Oxymetholone; 120 mg/kg; oral; Male; F344/N
[4] = test system: Rat; settings: dosed: Oxymetholone, F344/N
[5] = test system: Rat; settings: 3 h; dosed: Oxymetholone; 120 mg/kg; oral; Male; F344/N
[6] = test system: Rat; settings: 4 h; dosed: Oxymetholone; 20 mg/kg; iv; Male; F344/N
[7] = test system: Rat; settings: 12 h; dosed: Oxymetholone; 120 mg/kg; oral; Male; F344/N
[8] = test system: Rat; settings: 10 min; dosed: Oxymetholone; 20 mg/kg; iv; Male; F344/N
[9] = test system: Rat; settings: 8 h; dosed: Oxymetholone; 120 mg/kg; oral; Male; F344/N
[10] = test system: Rat; settings: 20 min; dosed: Oxymetholone; 20 mg/kg; iv; Male; F344/N
[11] = test system: Rat; settings: 1 h; dosed: Oxymetholone; 20 mg/kg; iv; Male; F344/N
[12] = test system: Rat; settings: 2 h; dosed: Oxymetholone; 30 mg/kg; oral; Male; F344/N
[13] = test system: Rat; settings: 5 h; dosed: Oxymetholone; 120 mg/kg; oral; Male; F344/N
[14] = test system: Rat; settings: 40 min; dosed: Oxymetholone; 120 mg/kg; oral; Male; F344/N; remark: listed apart in the source
[15] = test system: Rat; settings: 1 h; dosed: Oxymetholone; 120 mg/kg; oral; Male; F344/N
[16] = test system: Rat; settings: 6 h; dosed: Oxymetholone; 120 mg/kg; oral; Male; F344/N
[17] = test system: Rat; settings: 0.5 h; dosed: Oxymetholone; 20 mg/kg; iv; Male; F344/N
[18] = test system: Rat; settings: 2 h; dosed: Oxymetholone; 30 mg/kg; oral; Female; F344/N
[19] = test system: Rat; settings: 4 h; dosed: Oxymetholone; 120 mg/kg; oral; Male; F344/N
[20] = test system: Rat; settings: 10 min; dosed: Oxymetholone; 120 mg/kg; oral; Male; F344/N
[21] = test system: Rat; settings: 1 h; dosed: Oxymetholone; 20 mg/kg; iv; Male; F344/N; remark: listed apart in the source
[22] = test system: Rat; settings: 2 h; dosed: Oxymetholone; 120 mg/kg; oral; Female; F344/N; remark: listed apart in the source
[23] = test system: Rat; settings: 4 h; dosed: Oxymetholone; 30 mg/kg; oral; Male; F344/N; remark: listed apart in the source
[24] = test system: Rat; settings: 1 h; dosed: Oxymetholone; 120 mg/kg; oral; Male; F344/N; remark: listed apart in the source
[25] = test system: Rat; settings: 20 min; dosed: Oxymetholone; 20 mg/kg; iv; Male; F344/N; remark: listed apart in the source
[26] = test system: Rat; settings: 10 min; dosed: Oxymetholone; 120 mg/kg; oral; Male; F344/N; remark: listed apart in the source
[27] = test system: Rat; settings: 0.5 h; dosed: Oxymetholone; 20 mg/kg; iv; Male; F344/N; remark: listed apart in the source
[28] = test system: Rat; settings: 2 h; dosed: Oxymetholone; 120 mg/kg; oral; Male; F344/N
[29] = test system: Rat; settings: 10 min; dosed: Oxymetholone; 20 mg/kg; iv; Male; F344/N; remark: listed apart in the source
[30] = test system: Rat; settings: 40 min; dosed: Oxymetholone; 30 mg/kg; oral; Male; F344/N
[31] = test system: Rat; settings: 2 h; dosed: Oxymetholone; 20 mg/kg; iv; Male; F344/N
[32] = test system: Rat; settings: 8 h; dosed: Oxymetholone; 120 mg/kg; oral; Male; F344/N; remark: listed apart in the source
[33] = test system: Rat; settings: 2 h; dosed: Oxymetholone; 20 mg/kg; iv; Male; F344/N; remark: listed apart in the source
[34] = test system: Rat; settings: 2 h; dosed: Oxymetholone; 30 mg/kg; oral; Male; F344/N; remark: listed apart in the source
[35] = test system: Rat; settings: 2 h; dosed: Oxymetholone; 120 mg/kg; oral; Male; F344/N; remark: listed apart in the source
[36] = test system: Rat; settings: 2 h; dosed: Oxymetholone; 30 mg/kg; oral; Female; F344/N; remark: listed apart in the source
[37] = test system: Rat; settings: 3 h; dosed: Oxymetholone; 120 mg/kg; oral; Male; F344/N; remark: listed apart in the source
[38] = test system: Rat; settings: 5 min; dosed: Oxymetholone; 20 mg/kg; iv; Male; F344/N
[39] = test system: Rat; settings: 5 min; dosed: Oxymetholone; 20 mg/kg; iv; Male; F344/N; remark: listed apart in the source
[40] = test system: Rat; settings: 40 min; dosed: Oxymetholone; 30 mg/kg; oral; Male; F344/N; remark: listed apart in the source

C[C@]12C/C(=C/O)C(=O)C[C@@H]1CC[C@@H]1[C@@H]2CC[C@@]2(C)[C@H]1CC[C@]2(C)O [Oxymetholone]
Settings | concentration in plasma [µg/mL]
[1] | 0.316
[2] | 1.02
[3] | 0.733
[5] | 1.07
[6] | 0.376
[7] | 0.255
[8] | 6.51
[9] | 0.339
[10] | 2.21
[11] | 0.881
[12] | 0.711
[13] | 0.6
[14] | 0.675
[15] | 0.952
[16] | 0.462
[17] | 2.19
[18] | 0.276
[19] | 0.91
[20] | 0.666
[21] | 1.49
[22] | 0.918
[23] | 0.466
[24] | 0.739
[25] | 3.01
[26] | 0.319
[27] | 1.72
[28] | 1.33
[29] | 8.04
[30] | 0.629
[31] | 0.846
[32] | 0.203
[33] | 0.914
[34] | 0.875
[35] | 1.61
[36] | 0.231
[37] | 1.08
[38] | 20.3
[39] | 14.4
[40] | 0.641

concentration in plasma [µg/mL], [4]
Settings | Female | Male
0.5 h, 20 mg/kg, iv | – | 2.07
1 h, 20 mg/kg, iv | – | 1.21
1 h, 120 mg/kg, oral | – | 0.999
1.5 h, 120 mg/kg, oral | – | 0.616
2 h, 20 mg/kg, iv | – | 0.619
2 h, 30 mg/kg, oral | 0.266 | 0.875
2 h, 120 mg/kg, oral | 0.687 | 1.13
3 h, 120 mg/kg, oral | – | 0.925
4 h, 20 mg/kg, iv | – | 0.496
4 h, 30 mg/kg, oral | – | 0.427
4 h, 120 mg/kg, oral | – | 0.977
5 h, 120 mg/kg, oral | – | 0.527
5 min, 20 mg/kg, iv | – | 20.6
6 h, 120 mg/kg, oral | – | 0.806
8 h, 120 mg/kg, oral | – | 0.428
10 min, 20 mg/kg, iv | – | 5.51
10 min, 120 mg/kg, oral | – | 0.626
12 h, 120 mg/kg, oral | – | 0.208
20 min, 20 mg/kg, iv | – | 4.27
20 min, 120 mg/kg, oral | – | 0.788
40 min, 30 mg/kg, oral | – | 0.564
40 min, 120 mg/kg, oral | – | 0.684
